Measured values published in US9844535B2, “SHP2 inhibitors and methods of treating autoimmune and/or glomerulonephritis-associated diseases using SHP2 inhibitors” (Indiana University Research and Technology Corporation, priority 2013, dated 2017).

Assays:
[1] = test system: MRL/lpr mouse spleen immune cells; experiment: Cellular immune response in spleen (histology, flow cytometry); format: in vivo
Text: Harvested organs (kidney, spleen, and heart) to be used to assess morphometry and histochemistry were flushed with PBS, perfusion fixed in Bouin's reagent, and paraffin embedded. Sections (5 μm) were stained with Hematoxylin and Eosin (H&E), Periodic acid—Schiff stain (PAS), Masson-Trichrome, or reticulin staining at the Harvard Medical School Rodent Histopathology Core and scored using an unbiased approach, in which histology scores of 1 (normal) to 5 (most severe pathology) were designated to tissue sections which were only numerically labeled and in no particular order (by Dr. Roderick Bronson, director of the Rodent Histopathology Core, Harvard Medical School). Numerical sections were later decoded, marked for their designated score, and statistically analyzed. Images of the tissue sections were obtained and quantified on a Keyence BZ-9000 Microscope (Keyence Corporation, Itasca, Ill.).
Spleens were cut into 2 to 3 pieces each and homogenized on a 70 μm nylon mesh in 5 ml of HBSS buffer. The cells were filtered through a 70 μm nylon mesh to a new 50 ml tube and centrifuged at 2000 rpm for 5 minutes at room temperature. […]
To identify immune cell subsets, isolated cells from tissues were immunostained with mouse antibodies targeted against CD3E (145-2C11, BioLegend, San Diego, Calif.), CD4 (GK1.5, BioLegend), CD8 (53-6.7, eBioscience, San Diego, Calif.), CD45 (30-F11, eBioscience), CD 19 (6125, BioLegend), CD11b (M1170, BioLegend), TCRαβ (H57-597, BioLegend), CD44 (IM7, BioLegend), B220 (RA3-6B2, B.D. […], BD Biosciences, San Jose Calif.), CD138 (281-2, BioLegend), CD38 (CD28.2, BioLegend), Gr-1 (RB6.805, eBioscience), CD62L (DREG-56, BioLegend), and CD25 (PC61, BioLegend) for 30 minutes at 4° C. Samples were acquired on a LSR II flow cytometer (BD Biosciences) and the percentage of each sub-population of cells (B, T, monocytes, macrophage and neutrophils) was assessed by FlowJo [version 7.2.2 (Tree Star)]. Total cell numbers were counted using a hemocytometer. Absolute cell numbers for each sub-population were calculated based on the percentage of each population. […]

[2] = test system: MRL/lpr mouse kidney immune cells; experiment: Flow cytometry of immune cells infiltrating the kidney; format: in vivo; conditions: MRL/lpr mice vs vehicle
Procedure: Kidney, spleen, lung, and axillary lymph nodes were excised from either vehicle or drug-treated mice, and single cell suspensions were obtained by teasing the organs through a nylon mesh. Briefly, kidneys were cut into small pieces and homogenized on a 70 μm nylon mesh in 5 ml of Hank's Balanced Salt Solution (HBSS) buffer. All of the homogenized tissues and cells were transferred to new 50 ml tubes and digested with collagenase type 4 (100 ug/ml) (Worthington Biochemical Corp., Freehold, N.J.) in HBSS for 30 minutes to 2 hours (37° C.) on a rotating shaker. After digestion, the cells were centrifuged at 2000 rpm for 10 minutes, and the kidney cell isolates were generated, which included infiltrated immune cell subsets.
To identify immune cell subsets, isolated cells from tissues were immunostained with mouse antibodies targeted against CD3E (145-2C11, BioLegend, San Diego, Calif.), CD4 (GK1.5, BioLegend), CD8 (53-6.7, eBioscience, San Diego, Calif.), CD45 (30-F11, eBioscience), CD 19 (6125, BioLegend), CD11b (M1170, BioLegend), TCRαβ (H57-597, BioLegend), CD44 (IM7, BioLegend), B220 (RA3-6B2, B.D. […], BD Biosciences, San Jose Calif.), CD138 (281-2, BioLegend), CD38 (CD28.2, BioLegend), Gr-1 (RB6.805, eBioscience), CD62L (DREG-56, BioLegend), and CD25 (PC61, BioLegend) for 30 minutes at 4° C. Samples were acquired on a LSR II flow cytometer (BD Biosciences) and the percentage of each sub-population of cells (B, T, monocytes, macrophage and neutrophils) was assessed by FlowJo [version 7.2.2 (Tree Star)]. Total cell numbers were counted using a hemocytometer. Absolute cell numbers for each sub-population were calculated based on the percentage of each population.
B cells, T cells, macrophage and neutrophils from the MRL/lpr inhibitor-treated and vehicle-treated mouse kidneys of Example 9 were isolated.

[3] = test system: SLE-prone mice hearts; experiment: Echocardiography; format: in vivo, mouse; conditions: vs vehicle-treated SLE mice
Procedure: Transthoracic echocardiography was conducted on non-anesthetized animals as described previously in Marin et al., J Clin Invest. 2011; 121:1026-1043, with a 13-MHz probe (Vivid 7, GE Medical Systems, Boston, Mass.) or VisualSonics Vevo 770 high-frequency ultrasound rodent imaging system (VisualSonics, Toronto, Ontario). GE Medical Systems or VisualSonics Vevo 770 software was used for data acquisition and subsequent analysis. Hearts were imaged in the 2-dimensional parasternal short-axis view, and an M-mode echocardiogram of the midventricular region was recorded at the level of the papillary muscles. Calculations of cardiac anatomic and functional parameters were carried out as described in Marin et al., J Clin Invest. 2011; 121:1026-1043.

Question: How did the “overall splenic T cell counts” value ([1]; MRL/lpr mice) turn out when `Cn1c(-c2cccc(NC(=O)C(=O)Nc3ccc(-c4ccsc4)cc3)c2)c(I)c2cc(C(=O)O)c(O)cc21` [11a-1] was run?
Answer: overall splenic T cell counts were reduced

Question: And the “splenic CD4, CD8 and double-negative T cells” value ([1]; MRL/lpr mice)?
Answer: significant reduction in CD4, CD8, and double-negative T cells

Question: And the “germinal center formation in the spleen” value ([1]; MRL/lpr mice vs vehicle)?
Answer: greatly reduced

Question: And the “B cells in kidney” value [2]?
Answer: no discernable differences

Question: What about the “infiltrating T cells in the SLE kidney” value [2] of the same compound?
Answer: significantly reducing the overall number of CD4, CD8, and double-negative T cells

Question: What about the “infiltrating neutrophils and macrophages in kidney” value [2] of the same compound?
Answer: significant reduction in numbers of infiltrating neutrophils and macrophages

Question: What about the cardiac functional parameters [3] of the same compound?
Answer: significantly improved functional parameters

Question: And the “left ventricular chamber dimension” value [3]?
Answer: decreased chamber

Question: What about the posterior wall thickness [3] of the same compound?
Answer: increased posterior wall measurements
